Laboratory results as given in the supplement of paper PMC10307832.

Tests used:
Test in all cases: relative viability (nuclei count vs DMSO), 5 days (fraction); higher = more cells survive
[1] = compound: C1=CC2=C(C=CC(=C2)C=C3C(=O)NC(=NCC4=CC=CS4)S3)N=C1 [RO-3306] + COc1cccc2cc(-c3nc([C@H]4CC[C@H](C(=O)O)CC4)n4ncnc(N)c34)[nH]c12 [OSI-027] (partner 0.5 µM)
Outline: (§1)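 Lung cancer cell lines were seeded in 1536-well plates and dosed by pin tool the next day, with either a single drug or a fixed anchor-drug dose combined with five library-drug doses (not always all listed) spaced in √10 steps. Five days later, one step fixed the cells and stained their nuclei (final 0.05% Triton X-100, 1% formaldehyde, 1 ug/ml Hoechst), and nuclei were counted on 4× images. Relative viability is the nuclei count in treated wells divided by the count in vehicle wells, and each value is the median of duplicate plates.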

[2] = compound: O=S(=O)(c1ccccc1)N(CC(F)(F)F)c1ccc(C(O)(C(F)(F)F)C(F)(F)F)cc1 + COc1cc2c(Oc3ccc(NC(=O)C4(C(=O)Nc5ccc(F)cc5)CC4)cc3F)ccnc2cc1OCCCN1CCOCC1 [Foretinib] (partner 0.25 µM)
Outline: as §1

[3] = compound: O=S(=O)(c1ccccc1)N(CC(F)(F)F)c1ccc(C(O)(C(F)(F)F)C(F)(F)F)cc1 + Cc1cc(Nc2cc(N3CCN(C)CC3)nc(Sc3ccc(NC(=O)C4CC4)cc3)n2)n[nH]1 [Tozasertib] (partner 0.1 µM)
Outline: as §1

[4] = compound: C1=CC2=C(C=CC(=C2)C=C3C(=O)NC(=NCC4=CC=CS4)S3)N=C1 [RO-3306] + NC(=O)Nc1cc(-c2cccc(F)c2)sc1C(=O)N[C@H]1CCCNC1 [AZD7762] (partner 0.2 µM)
Outline: as §1

Cell Line	relative viability ([1]; first compound 0.01 µM)	relative viability ([1]; first compound 0.03162 µM)	relative viability ([1]; first compound 0.1 µM)	relative viability ([1]; first compound 0.3162 µM)	relative viability ([1]; first compound 1 µM)	relative viability ([2]; first compound 0.8 µM)	relative viability ([2]; first compound 2.53 µM)	relative viability ([2]; first compound 8 µM)	relative viability ([3]; first compound 0.8 µM)	relative viability ([3]; first compound 2.53 µM)	relative viability ([3]; first compound 8 µM)	relative viability ([4]; first compound 0.01 µM)	relative viability ([4]; first compound 0.03162 µM)	relative viability ([4]; first compound 0.1 µM)	relative viability ([4]; first compound 0.3162 µM)	relative viability ([4]; first compound 1 µM)
SK-MES-1	0.657	0.558	0.693	0.794	0.612	0.723	0.728	0.767	1.11	1.05	0.962	–	–	–	–	–
H3255	0.671	0.476	0.604	0.594	0.504	0.866	0.673	0.786	0.629	0.663	0.66	0.897	0.774	0.856	0.888	0.848
NCI-H2087	0.534	0.462	0.529	0.539	0.538	1.15	0.909	0.971	0.255	0.258	0.188	1.42	1.03	1.35	1.42	1.34
NCI-H1666	0.747	0.73	0.749	0.817	0.853	0.936	0.863	0.863	0.627	0.62	0.545	0.787	0.878	0.858	0.88	0.799
SK-LU-1	0.283	0.285	0.325	0.314	0.339	0.716	0.857	0.695	0.285	0.328	0.301	–	–	–	–	–
NCI-H727	0.567	0.548	0.557	0.608	0.674	0.83	0.846	0.867	0.605	0.572	0.674	0.488	0.681	0.558	0.567	0.739
NCI-H1755	0.777	0.736	0.652	0.702	0.635	0.891	0.79	0.951	0.501	0.553	0.426	0.609	0.473	0.458	0.439	0.496
NCI-H1650	0.715	0.409	0.516	0.637	0.587	1.33	0.904	1.28	0.348	0.404	0.346	–	–	–	–	–
HARA	0.661	0.449	0.527	0.612	0.436	0.845	0.782	0.849	0.0946	0.0891	0.102	0.443	–	0.237	0.297	0.421
NCI-H1944	0.399	0.366	0.361	0.394	0.335	0.938	0.826	0.832	0.263	0.263	0.234	0.606	0.571	0.508	0.45	0.46
RERF-LC-KJ	0.632	0.53	0.556	0.598	0.556	0.816	0.746	0.751	0.5	0.445	0.523	1.02	0.671	1.06	1.11	1.24
NCI-H647	0.644	0.608	0.636	0.84	0.673	1.48	1.19	1.03	0.425	0.325	0.167	0.519	0.339	0.325	0.515	0.31
NCI-H838	0.334	0.394	0.35	0.412	0.373	1.15	1.05	1.02	0.278	0.268	0.25	1.03	0.908	0.975	0.972	0.931
NCI-H2170	0.819	0.702	0.726	0.655	0.697	1.02	0.88	0.837	0.784	0.616	0.629	1.11	0.865	0.938	0.939	0.907
COR-L 105	0.589	0.607	0.64	0.864	0.735	1.13	0.852	1.48	0.337	0.342	0.435	–	–	–	–	–
HOP-62	0.827	0.593	0.727	0.89	0.8	1.08	1.09	0.881	0.392	0.35	0.26	0.695	0.469	0.466	0.567	0.451
A-427	0.459	0.457	0.423	0.451	0.497	1.1	0.967	1.09	0.186	0.216	0.298	0.821	0.766	0.685	0.744	0.832
